# Legend:
# LREX′ cells [1] = assay: RNAseq GSEA (Hallmark pathways) in LREX′ cells; assay type: cell-based, human
# Protocol: (§1) LREX′ cells were plated at 50,000 cells/mL in 10 cm^2 dishes, treated with or without 10 μM of ARE-1 in fresh media, incubated 16 hours, and induced with 1 nM DHT for 8 hours. Tumor samples were homogenized mechanically. Total RNA was triazol extracted, sequenced (Illumina HiSeq2000), mapped against the human genome (hg19) with Tophat2 using Ensembl GRCh37 gene annotations. Human and mouse reads from tumor samples were parsed with BBSplit and unique reads were mapped. Htseq-count was used for exon alignment and DESeq2 for differential expression. Gene set enrichment analysis (GSEA) was performed on genes with padj<0.05 and fold change≥1.6 for cell samples and padj<0.05 for tumor samples.
# [2] = system: KLK3 mRNA in LNCaP/AR cells; assay: Gene expression analysis (qRT-PCR) in LNCaP/AR cells; assay type: cell-based; settings: 10 μM; for agonist activity (KLK3 mRNA): androgen-depleted conditions
# Protocol: (§2) LNCaP/AR and LREX′ cells were cultured for 72 hours after plating in phenol-red free RPMI 1640 (10% CT-FBS) in six well plates at 40,000 and 50,000 cells/mL, respectively. LNCaP/AR cells were treated with 10 μM ARE-1, bicalutamide (bic), or enzalutamide (enz, Aurum Pharmatech) for an additional 48, 2, and 2 hours, respectively, prior to treatment with 1 nM DHT or ethanol for 16 hours. LREX′ cells were treated with 10 μM ARE-1 for 16 hours prior to induction with 1 nM DHT or 100 nM dexamethasone (dex) for 8 hours. RNA extraction (RNEasy columns, Qiagen), cDNA generation (Transcriptor First Strand cDNA kit, Roche), and qRT-PCR (SYBR Green Master Mix, Applied Biosystems, ABI7300 instrument) were as described (10-12). Expression was normalized to β-glucuronidase.
# [3] = system: KLK3 and HOMER2 expression in LREX′ cells; assay: Gene expression analysis (qRT-PCR) of genes co-regulated by AR and GR in LREX′ cells; assay type: cell-based
# Protocol: as §2
# VCaP xenografts [4] = settings: 10 mg/kg enzalutamide treatment; cited from earlier work
# LNCaP/AR cells = assay: Cytotoxicity / proliferation in LNCaP/AR cells (WST-1, CellTiter-Glo); assay type: cell-based; settings: 72 hours, compared with bicalutamide
# Excerpt: (§3) The LREX′ and LNCaP/AR cell lines were gifts from Charles Sawyers (Memorial Sloan Kettering) and received in 2014 and 2007, respectively. The VCaP cell line was a gift from Kenneth Pienta (University of Michigan Medical School) and received in 2012. Cells were maintained as previously described (5, 10-13), and were used within 10 passages from thawing. Cells were validated to parental cell lines by STR profile at IDEXXX Bioresearch following experimentation and confirmed to be Mycoplasma free. WST-1 assay (Roche) was used to measure cytotoxicity. The CellTiter-Glo assay was also used in some experiments and is described when used. Long-term toxicity in VCaP cells was assayed by cell counting.
# LREX′ cells [5] = assay: Cytotoxicity / proliferation in LREX′ cells (WST-1); assay type: cell-based; settings: with or without 1 nM DHT, 100 nM dex, or both
# Excerpt: as §3
# VCaP cells = assay: Cytotoxicity and long-term viability (cell counting) in VCaP cells; assay type: cell-based
# Excerpt: as §3
# LNCaP cells = assay: RNAseq GSEA (Hallmark pathways) in LNCaP cells; assay type: cell-based, human; settings: LNCaP ARE-1/NT
# [6] = system: nascent RNA in LREX′ cells; assay: Nascent RNA measurement (5-EU incorporation) in LREX′ cells; assay type: cell-based
# Protocol: LREX′ cells were plated at 100,000 cells/mL in 96 well plates in RPMI 1640 (20% FBS and 1 μM enz), adhered for 24 hours, dosed with ARE-1, incubated for 48 hours. The Click-iT® RNA Alexa Fluor® 488 HCS kit was used for dye conjugation and incorporation of 5-ethynyl uridine (5-EU) was measured on a Flexstation 3 plate reader.
# LREX′ cells were plated at 100,000 cells/mL in 175 cm^2 flasks, adhered 24 hours, incubated with 10 μM ARE-1 24, 48, and 72 hours, then with 300 μM 5-EU in fresh media. Cells were detached by Accumax or Accutase, and Alexa Fluor® 488 azide dye was conjugated. Cells were passed through 35 μm mesh prior to flow, sorted on a FACSCalibur instrument (Beckman-Dickinson), analyzed using FlowJo.
# VCaP xenografts [7] = assay: VCaP xenografts in intact male SCID mice; assay type: in vivo
# Protocol: (§4) Animal experiments were performed at Caltech under IACUC approval. VCaP and LREX′ cells were engrafted as 1:1 mixtures of 3×10^6 cells in Matrigel (BD Biosciences) into flanks of intact and castrated male SCID mice (Charles River), respectively. LREX′ engrafted mice received 10 mg/kg enz (oral gavage) daily. Once tumors were 100 mm^3 (0.5*l*w*w), ARE-1 was administered subcutaneously to opposing flanks in 20% DMSO:saline. For circulation studies, four C57BL6/J animals were injected subcutaneously with ARE-1 at 30 mg/kg and blood collected retroorbitally. Plasma concentrations of ARE-1 were analyzed by HPLC, area under the curve (AUC) approximated by the linear trapezoidal method, as described (12).
# LREX′ tumors = assay: RNAseq GSEA of LREX′ tumor expression profiles; assay type: in vivo, mice; settings: gene ontology
# Protocol: as §1, §4
# [8] = Plasma concentration of ARE-1 in LREX′ tumor bearing SCID mice; assay type: in vivo; settings: 2.5 mg/kg, terminal blood samples, linear trapezoidal method
# Protocol: as §4
# (§5) Cell culture experiments represent ≥3 independent biological replicates. Sequencing analyses were duplicates for cell culture and quadruplicates for tumor samples. For xenografts, animals were randomly assigned to groups. For circulation experiments, concentrations of ARE-1 were duplicate measurements. Measurements in cell culture, animal, and immunohistochemistry experiments were assessed by Student's t-test.
# [9] = Circulation study of ARE-1 in C57BL6/J mice; assay type: in vivo
# Protocol: as §4, §5
# [10] = system: hormone sensitive LNCaP xenografts; settings: previously shown, cited from earlier work
compound,measurement,setting,value
"C[C@]12CCC(=O)C[C@@H]1CC[C@@H]1[C@@H]2CC[C@]2(C)[C@@H](O)CC[C@@H]12 [DHT, dihydrotestosterone, reference compound]",NES HALLMARK ANDROGEN RESPONSE,LREX′ cells [1]; LREX′ DHT/NT,5.031
same,NES HALLMARK MYC TARGETS V1,LREX′ cells [1]; LREX′ DHT/NT,−1.861
same,NES HALLMARK MYC TARGETS V2,LREX′ cells [1]; LREX′ DHT/NT,−1.81
same,NES HALLMARK OXIDATIVE PHOSPHORYLATION,LREX′ cells [1]; LREX′ DHT/NT,−2.126
same,NES HALLMARK PROTEIN SECRETION,LREX′ cells [1]; LREX′ DHT/NT,2.849
same,NES HALLMARK TNFA SIGNALING VIA NFKB,LREX′ cells [1]; LREX′ DHT/NT,2.751
same,NES HALLMARK UV RESPONSE DOWN,LREX′ cells [1]; LREX′ DHT/NT,2.496
"CNC(=O)c1ccc(N2C(=S)N(c3ccc(C#N)c(C(F)(F)F)c3)C(=O)C2(C)C)cc1F [enzalutamide, reference compound]",agonist activity (KLK3 mRNA),[2],no agonist activity
same,reduction of DHT induced transcription,"[3]; 1 nM DHT, enzalutamide compared with ARE-1",more potent than ARE-1 in reducing DHT induced transcription
same,response of VCaP xenografts,VCaP xenografts [4],modest response
CC(=O)N[C@H](CCNC(=O)c1cc(NC(=O)c2cc(NC(=O)c3cc(NC(=O)c4nccn4C)cn3C)cn2C)cn1C)C(=O)Nc1cn(C)c(C(=O)Nc2cc(C(=O)Nc3cc(C(=O)Nc4cc(C(=O)NCCCN(C)CCCNC(=O)c5cccc(C(=O)O)c5)n(C)c4)n(C)c3)n(C)c2)n1 [ARE-1],proliferation of LNCaP/AR cells,LNCaP/AR cells,reduced proliferation of LNCaP/AR cells more than bicalutamide
same,proliferation of LREX′ cells,LREX′ cells [5],reduced proliferation
same,long-term cell viability in VCaP cells,"VCaP cells; long-term incubation, cell counting, compared with enzalutamide",more potent than enzalutamide and insensitive to GR activation
same,proliferation of VCaP cells,"VCaP cells; with or without 1 nM DHT, 100 nM dex, or both",reduced proliferation
same,agonist activity (KLK3 mRNA),[2],no agonist activity
same,baseline expression of KLK3,[2]; charcoal stripped media,reduced baseline expression of KLK3
same,reduction of dex induced transcription,"[3]; 100 nM dex, ARE-1 compared with enzalutamide",the opposite was observed with dex induction
same,KLK3 and HOMER2 expression,[3]; 10 μM ARE-1,represses KLK3 and HOMER2 expression
same,NES HALLMARK APICAL JUNCTION,LREX′ cells [1]; LREX′ DHT + ARE-1/DHT,−2.198
same,NES HALLMARK DNA REPAIR,LREX′ cells [1]; LREX′ DHT + ARE-1/DHT,2.055
same,NES HALLMARK INTERFERON GAMMA RESPONSE,LREX′ cells [1]; LREX′ DHT + ARE-1/DHT,2.028
same,NES HALLMARK MITOTIC SPINDLE,LREX′ cells [1]; LREX′ DHT + ARE-1/DHT,−2.302
same,NES HALLMARK MYC TARGETS V1,LREX′ cells [1]; LREX′ DHT + ARE-1/DHT,2.006
same,NES HALLMARK OXIDATIVE PHOSPHORYLATION,LREX′ cells [1]; LREX′ DHT + ARE-1/DHT,2.738
same,NES HALLMARK PROTEIN SECRETION,LREX′ cells [1]; LREX′ DHT + ARE-1/DHT,−2.402
same,NES HALLMARK UV RESPONSE UP,LREX′ cells [1]; LREX′ DHT + ARE-1/DHT,2.173
same,NES HALLMARK APOPTOSIS,LNCaP cells,2.323
same,NES HALLMARK INTERFERON GAMMA RESPONSE,LNCaP cells,3.06
same,NES HALLMARK P53 PATHWAY,LNCaP cells,3.749
same,NES HALLMARK TNFA SIGNALING VIA NFKB,LNCaP cells,3.248
same,nascent RNA (5-EU incorporation),[6],reduced nascent RNA in LREX′ cells
same,toxicity (animal weights),VCaP xenografts [7]; VCaP tumor bearing animals treated with ARE-1,without significant toxicity
same,reduction of tumor growth compared to vehicle,"VCaP xenografts [7]; VCaP xenografts, 5 mg/kg ARE-1 subcutaneously three times per week",70%
same,Nes ADENYL NUCLEOTIDE BINDING,LREX′ tumors,−4.22
same,Nes CELL PROJECTION ORGANIZATION,LREX′ tumors,−3.813
same,Nes CELLULAR AMIDE METABOLIC PROCESS,LREX′ tumors,4.725
same,Nes CHROMATIN BINDING,LREX′ tumors,−3.786
same,Nes DOUBLE STRANDED DNA BINDING,LREX′ tumors,−4.074
same,Nes MACROMOLECULAR COMPLEX BINDING,LREX′ tumors,−3.726
same,Nes MITOCHONDRIAL ENVELOPE,LREX′ tumors,5.17
same,Nes MITOCHONDRIAL PART,LREX′ tumors,5.946
same,Nes MITOCHONDRION,LREX′ tumors,6.585
same,Nes MITOCHONDRION ORGANIZATION,LREX′ tumors,4.686
same,Nes NUCLEIC ACID BINDING TRANSCRIPTION FACTOR ACTIVITY,LREX′ tumors,−5.598
same,Nes ORGANELLE INNER MEMBRANE,LREX′ tumors,4.922
same,Nes ORGANONITROGEN COMPOUND BIOSYNTHETIC PROCESS,LREX′ tumors,4.815
same,Nes ORGANONITROGEN COMPOUND METABOLIC PROCESS,LREX′ tumors,5.958
same,Nes REGULATION OF TRANSCRIPTION FROM RNA POLYMERASE II PROMOTER,LREX′ tumors,−4.438
same,Nes REGULATORY REGION NUCLEIC ACID BINDING,LREX′ tumors,−4.775
same,Nes RIBOSOME,LREX′ tumors,4.779
same,Nes SEQUENCE SPECIFIC DNA BINDING,LREX′ tumors,−4.99
same,Nes STRUCTURAL CONSTITUENT OF RIBOSOME,LREX′ tumors,4.741
same,Nes ZINC ION BINDING,LREX′ tumors,−3.923
same,AUC (plasma),[8],25.9 µg·h/mL
same,AUC (plasma),"[9]; 30 mg/kg subcutaneously, C57BL6/J mice, linear trapezoidal method",189.9 µg·h/mL
same,time to recovery from weight loss,"[9]; 30 mg/kg, mice",≤ 5 days
same,visible signs of distress,"[9]; 30 mg/kg, mice",without visible signs of distress
same,weight loss,"[9]; 30 mg/kg, mice",6%
same,host toxicity,[10]; LNCaP xenografts,minimal host toxicity
same,efficacy against LNCaP xenografts,[10],effective against hormone sensitive LNCaP xenografts

# Source: US10307401B2, “Compositions and methods for treatment of prostate cancer” (priority 2016, dated 2019)
